Measurements: patent US20080280761A1 (priority 2005, published 2008)
Read-outs that look alike come from different tables or passages of the source.

Legend:
weeds = details: in vivo; cited from earlier work
[1] = test system: main weeds in the cropland; assay type: in vivo
[2] = test system: thylakoid membrane, electron transfer reaction of two photosystems, especially photosystem II; assay type: biochemical
Striga hermonthica = details: 10-4 mol/L; cited from earlier work

Compound	time to kill the weeds (weeds)	time to distinct toxic symptom ([1]; sprayed on the stems and leaves, 5 to 800 μg/g)	time to obvious injuried symptom ([1]; stem or leaf treatment) [h]	apparent quanta efficiency [2]	electron transfer reaction of two photosystems, especially photosystem II [2]	photosynthetic oxygen evolution rate [2]	inhibitory effect on the seed germination (Striga hermonthica)	time to distinct toxic symptom ([1]; in vivo)	time to obvious injuried symptom ([1]; in vivo) [h]
O=C(O)CNCP(=O)(O)O [glyphosate]	at least 10 days								
CC(=O)C1=C(O)C(CC(C)C)NC1=O (stereo not shown) [iso-tenuazonic acid]		five	12	obviously reduce	inhibiting	obviously reduce	around 50%		
CCC(C)C1NC(=O)C(C(C)=O)=C1O (stereo not shown) [tenuazonic acid]				obviously reduce	inhibiting	obviously reduce	around 50%	five	12
